From patent US12234476B2, “VCN enhancer compositions and methods of using the same” (bluebird bio, Inc., priority 2016, dated 2025)

What was measured:
[1] = tested on: long-term HSCs (CD34+CD38-CD45RA-CD90+CD49f+); assay: GFP lentiviral vector transduction of phenotypic long-term HSCs (flow cytometry); format: cell-based, human; details: GFP LVV; 4 days of culture
Excerpt: Human CD34^+ cells were transduced with a GFP lentiviral vector (LVV) and subsequently cultured in cytokine-containing media. After 4 days of culture, these cells were stained for cell surface markers that phenotypically characterize long-term HSCs (CD34^+CD38^−CD45RA^−CD90^+CD49f^+). […] The proportion of transduced phenotypic long-term HSCs increased to >90% in cells transduced in the presence of F108, with or without the supplementation of PGE2. FIG. 22.

[2] = tested on: hCD34+ cells; assay: Colony formation in MethoCult / methylcellulose; format: cell-based, human
Protocol: (§1) Washed cells were resuspended in 200 μL SCGM and then transferred to 3 mL aliquots of cytokine-supplemented methylcellulose (for example, Methocult M4434 Classic). 1.1 mL was then transferred to parallel 35-mm tissue culture dishes using a blunt 16-gauge needle. Dishes were maintained in a standard humidified tissue culture incubator for 12-16 days and colonies were scored for size, morphology, and cellular composition. Individual colonies were then picked for subsequent VCN analysis or the contents of an entire 35-mm dish were pooled and then subject to VCN analysis.
Colonies in MethoCult were enumerated using STEMvision (Stemcell Technologies). […] FIG. 3.

[3] = tested on: hCD34+ cells transplanted into NSG mice; assay: Engraftment and differentiation of transduced hCD34+ cells in NSG mice (flow cytometry); format: in vivo
Excerpt: HSCs transduced with lentivirus were transplanted into NOD/SCID Gamma (NSG) mice to assess the effect of candidate compounds on viral transduction of human long-term hematopoietic stem cells. […] Mice were housed in a pathogen-free environment per standard IACUC animal care guidelines.
Meta-analysis of NSG transplants with PGE2-treated lentiviral transduced hCD34+ cells from healthy donors (n=3). Human CD34^+ cells were transplanted into sub-myeloablated female NSG mice and bone marrow (BM) was analyzed at 4 months post-transplant. BM was harvested from both femurs of NSG mice and half of the sample was stained with anti-hCD45 for approximately 30 minutes at 4° C. […] FIG. 1A. […] FIG. 1B.
The BM was analyzed for engraftment of hCD34^+ cells. Cells were stained with an antibody cocktail recognizing various cell surface markers (CD45, CD33, CD3, CD19) and analyzed via flow cytometry.

[4] = tested on: hCD34+ cells; assay: Transduction efficiency / % LVV+ (single-cell nested PCR or individual colony qPCR); format: cell-based, human; details: for transduction efficiency: low-transducing cell lot, individual colony qPCR (Example 11)
Protocol: (§2) Washed cells were resuspended in 2 mL Stem Cell Growth Medium (SCGM)+cytokines and transferred to a standard 12-well non-adherent tissue culture plate. Cells were maintained for an additional 6 days in a standard humidified tissue culture incubator (5% CO2) and then subjected to Vector Copy Number (VCN) analysis or single-cell nested PCR to determine transduction efficiency. Both VCN and the single-cell nested PCR assay were performed with qPCR using primers and probes specific to both the vector and an endogenous control gene. VCN was determined by dividing the amount of vector signal by the amount of the endogenous control gene. For the single-cell nested PCR assay, wells that contained a cell positive for the endogenous control gene and wells that contained a marked cell positive for both the vector and the endogenous control gene were enumerated, and the proportion of marked cells, or transduction efficiency, was calculated.
After a 7 day liquid culture, cells were collected and single-cell sorted into a 96-well plate. Cells were lysed and subjected to nested PCR to determine presence of LVV in a single cell. Percentage of cells containing both LVV and an endogenous control gene was determined from number of cells containing the endogenous control gene. […] FIG. 5B.
% LVV+: Single cells were isolated by FACS and deposited in 96-well plates containing lysis buffer. Following lysis, the viral-specific sequence from a lentiviral vector encoding a β-globin variant was amplified by PCR along with a control genomic sequence not present in the vector. The PCR products from each single cell were then analyzed by qPCR for presence of genomic sequence, indicating a successfully captured cell. […] Fraction of vector positive cells was then calculated across the entire set of sampled cells. The % LVV+ of the β0/β0 hCD34+ cells was about 77%. FIG. 18, right panel.

[5] = tested on: hCD34+ cells transplanted into NSG mice; assay: In vivo VCN of engrafted human cells in bone marrow of NSG mice
Excerpt: HSCs transduced with lentivirus were transplanted into NOD/SCID Gamma (NSG) mice to assess the effect of candidate compounds on viral transduction of human long-term hematopoietic stem cells. Transduced cells were washed and resuspended in phosphate-buffered saline (PBS) and transplanted into the tail vein of sub-myeloablated adult NSG mice, with minimal residual toxicity. Mice were housed in a pathogen-free environment per standard IACUC animal care guidelines. At 4 months post-transplant bone marrow (BM) was harvested from both femurs and analyzed for both VCN and engraftment of human cells by staining with an anti-hCD45 antibody (BD #561864) followed by flow cytometry analysis.
Meta-analysis of NSG transplants with PGE2-treated lentiviral transduced hCD34+ cells from healthy donors (n=3). Human CD34^+ cells were transplanted into sub-myeloablated female NSG mice and bone marrow (BM) was analyzed at 4 months post-transplant. BM was harvested from both femurs of NSG mice and half of the sample was stained with anti-hCD45 for approximately 30 minutes at 4° C. Following incubation, samples were washed and analyzed for human CD45^+ cells via flow analysis using an anti-hCD45 antibody (BD #561864). […] FIG. 1A. The mean VCN of engrafted PGE2-treated hCD34^+ cells was about two-fold higher than the mean VCN of control cells at 4 months post-transplant. FIG. 1B.
A low-transducing cell lot of hCD34^+ cells (VCN of 0.3 under standard conditions) was transduced with lentiviral vector in the presence of protamine sulfate, PGE2, F108 (200 μg/mL or 1000 μg/mL), or the combination of PGE2 and F108 for 24 hours. Following transduction, cells were washed and immediately injected into busulfan-treated NSG mice.
Two months post-transplant, 5 mice/group were sacrificed and BM was harvested and analyzed to evaluate in vivo VCN. The in vivo VCN of engrafted cells transduced in the presence of protamine sulfate was very similar to the graft VCN (˜0.3). in vivo VCN increased approximately 2-fold in PGE2-treated cells. […] FIG. 10C.

[6] = tested on: hCD34+ cells; assay: Vector copy number (VCN) analysis by qPCR of lentivirus-transduced hCD34+ cells (pooled or individual MethoCult colonies, liquid culture); format: cell-based, human; details: for VCN with increasing concentrations of PGE2: pooled colonies
Protocol: as §2, §1

[7] = tested on: Human CD34+ cells; assay: ALDP expression by intracellular staining and flow cytometry; format: cell-based; details: MND-ABCD1 LVV; AMN, ALD patients and healthy donors; day 4 or 5; vs PS
Excerpt: Human CD34^+ cells from AMN patients (FIG. 26, panels A-D), ALD patients (FIG. 26, panels E-H), and healthy donors (HD; FIG. 26, panels I-L) were transduced with a lentiviral vector (LVV) lacking a WPRE and comprising an MND promoter operably linked to a polynucleotide encoding ABCD1. […] Cultured cells were stained intracellularly for ALDP expression on day 4 or 5 and analyzed by flow cytometry.

`CCCCC[C@H](O)/C=C/[C@H]1[C@H](O)CC(=O)[C@@H]1C/C=C\CCCC(=O)O` [PGE2, prostaglandin E2] was tested. Which “proportion of phenotypic long-term HSCs expressing GFP” value [1] did it give?
Its value is 45%.

And the “colony formation ability of transduced cells” value ([2]; 24 hour transduction, 14 day MethoCult (Example 4))?
The value was “did not alter the colony formation ability”.

What about the “effect on hCD34+ engraftment” value ([3]; 2 and 4 months post-transplant) of the same molecule?
The value was “no statistically significant effect”.

And the “proportion of myeloid (CD33+) or lymphoid (CD3+ or CD19+) cells” value ([3]; 2 and 4 months post-transplant)?
The value was “no significant difference”.

And the “percentage of hCD45+ cells in mouse BM (engraftment)” value ([3]; 4 months post-transplant, PGE2-treated vs control-treated)?
The value was “No statistically significant difference”.

What about the transduction efficiency [4] of the same molecule?
Its transduction efficiency is roughly 40%.

And the “mean VCN of engrafted cells vs control cells” value ([5]; 4 months post-transplant, healthy donors n=3)?
Its value is “about two-fold”.

What about the “increase of in vivo VCN over protamine sulfate” value ([5]; four months post-transplant) of the same molecule?
The value was “approximately 1.6 fold”.

And the “increase of in vivo VCN over protamine sulfate” value ([5]; two months post-transplant)?
The value was “approximately 2 fold”.

What about the “fold increase in mean VCN compared to protamine sulfate” value ([6]; 24 hour transduction, 14 day MethoCult pooled colonies (Example 6)) of the same molecule?
The value was 2 fold.

And the “VCN at D7 in cytokine cultured cells and D14 pooled methylcellulose colonies” value ([6]; MND-ABCD1 LVV, AMN, ALD patients and healthy donors)?
The value was “increased VCN”.

And the “VCN with increasing concentrations of PGE2” value ([6]; in the presence of F108, PGE2 increased at least 10-fold)?
Its value is “does not result in a dose-dependent increase in VCN”.

What about the “VCN with increasing concentrations of PGE2” value ([6]; in the presence of protamine sulfate) of the same molecule?
The value was “dose-dependent increase in VCN”.

What about the “increase of mean VCN of graft vs protamine sulfate” value ([6]; low-transducing cell lot, 24 hours (Example 11)) of the same molecule?
The value was “approximately 3 fold”.

And the “number of cells expressing ALDP” value [7]?
Its value is “increased the number of cells expressing ALDP”.

What does the source list for protamine sulfate?
proportion of phenotypic long-term HSCs expressing GFP [1]: approximately 30%; ability of hematopoietic progenitors to form colonies (erythroid or myeloid) ([2]; 8 μg/mL PS, 10 or 1000 μg/mL F108, 1000 μg/mL F108 with 8 μg/mL PS): Neither PS nor F108 significantly affected; colony formation ([2]; IL2Rγ LVV (Example 26)): did not significantly impact colony formation; % LVV+ colonies ([4]; IL2Rγ LVV from PrCL1 or PrCL2): 20-30%; % LVV+ colonies ([4]; IL2Rγ LVV, transiently prepared): 50-60%; transduction efficiency [4]: ~20%; in vivo VCN of engrafted cells ([5]; four months post-transplant): ~0.3; in vivo VCN of engrafted cells ([5]; two months post-transplant): ~0.3; VCN of pooled colonies ([6]; EF1α-IL2Rγ LVV, MOI 10 or 30): below 1.5; VCN of pooled colonies ([6]; EF1α-TPP1 or MND-TPP1 LVV, MOI 5 or 15): below 1.5; distribution of individual colony VCNs ([6]; F108 and PGE2 at MOI 10, protamine sulfate at MOI 25): 0-6
